Laboratory results published in the supplement of paper PMC10307832.

Key:
Experiment in all cases: relative viability (nuclei count vs DMSO), 5 days (fraction); higher = more cells survive
GSK-J4 + Crizotinib = compound: CCOC(=O)CCNc1cc(N2CCc3ccccc3CC2)nc(-c2ccccn2)n1 [GSK-J4] + C[C@@H](Oc1cc(-c2cnn(C3CCNCC3)c2)cnc1N)c1c(Cl)ccc(F)c1Cl [Crizotinib] (partner 1 µM)
Method in brief: (§1)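 Lung cancer cell lines were pin-tool dosed in 1536-well plates on the day after seeding, with either a lone drug or a fixed anchor-drug dose plus five library-drug doses (not always all listed) in √10 steps. Nuclei were counted on 4× images after 5 days. Relative viability is the ratio of treated-well to vehicle-well nuclei counts, with each value a median of duplicate plates.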

GSK-J4 + Bortezomib = compound: CCOC(=O)CCNc1cc(N2CCc3ccccc3CC2)nc(-c2ccccn2)n1 [GSK-J4] + CC(C)C[C@H](NC(=O)[C@H](Cc1ccccc1)NC(=O)c1cnccn1)B(O)O [Bortezomib] (partner 0.002 µM)
Method in brief: as §1

AZ3146 + Bortezomib = compound: CN1CCC(CC1)OC2=CC(=C(C=C2)NC3=NC=C4C(=N3)N(C(=O)N4C)C5CCCC5)OC [AZ3146] + CC(C)C[C@H](NC(=O)[C@H](Cc1ccccc1)NC(=O)c1cnccn1)B(O)O [Bortezomib] (partner 0.002 µM)
Method in brief: as §1

AZ3146 + AZD7762 = compound: CN1CCC(CC1)OC2=CC(=C(C=C2)NC3=NC=C4C(=N3)N(C(=O)N4C)C5CCCC5)OC [AZ3146] + NC(=O)Nc1cc(-c2cccc(F)c2)sc1C(=O)N[C@H]1CCCNC1 [AZD7762] (partner 0.2 µM)
Method in brief: as §1

Row | Cell Line | relative viability (GSK-J4 + Crizotinib; first compound 0.5 µM) | relative viability (GSK-J4 + Crizotinib; first compound 1.581 µM) | relative viability (GSK-J4 + Crizotinib; first compound 5 µM) | relative viability (GSK-J4 + Crizotinib; first compound 15.81 µM) | relative viability (GSK-J4 + Crizotinib; first compound 50 µM) | relative viability (GSK-J4 + Bortezomib; first compound 0.5 µM) | relative viability (GSK-J4 + Bortezomib; first compound 1.581 µM) | relative viability (GSK-J4 + Bortezomib; first compound 5 µM) | relative viability (GSK-J4 + Bortezomib; first compound 15.81 µM) | relative viability (GSK-J4 + Bortezomib; first compound 50 µM) | relative viability (AZ3146 + Bortezomib; first compound 0.08 µM) | relative viability (AZ3146 + Bortezomib; first compound 0.253 µM) | relative viability (AZ3146 + Bortezomib; first compound 0.8 µM) | relative viability (AZ3146 + Bortezomib; first compound 2.53 µM) | relative viability (AZ3146 + Bortezomib; first compound 8 µM) | relative viability (AZ3146 + AZD7762; first compound 0.08 µM) | relative viability (AZ3146 + AZD7762; first compound 0.253 µM) | relative viability (AZ3146 + AZD7762; first compound 0.8 µM) | relative viability (AZ3146 + AZD7762; first compound 2.53 µM) | relative viability (AZ3146 + AZD7762; first compound 8 µM)
1 | HOP-62 | 0.798 | 1 | 0.965 | 0.994 | 0.847 | 0.688 | 0.532 | 0.73 | 0.74 | 0.823 | 0.401 | 0.967 | 0.694 | 0.851 | 0.44 | 0.276 | 0.61 | 0.485 | 0.582 | 0.791
2 | NCI-H1437 | 0.76 | 0.917 | 0.924 | 0.897 | 0.436 | 0.537 | 0.328 | 0.435 | 0.504 | 0.209 | 0.497 | 0.441 | 0.469 | 0.535 | 0.479 | 0.887 | 1.2 | 1.09 | 1.14 | 1.1
3 | PC-14 | 0.858 | 0.896 | 0.843 | 0.842 | 0.855 | 0.719 | 0.91 | 0.973 | 0.759 | 0.8 | 0.872 | 0.891 | 0.846 | 0.997 | 0.721 | 0.343 | 0.355 | 0.415 | 0.382 | 0.294
4 | CAL-12T | 0.522 | 0.512 | 0.341 | 0.479 | 0.589 | 1.06 | 0.834 | 0.785 | 1.01 | 0.941 | 1.28 | – | 0.897 | 1.08 | 0.644 | 0.656 | 0.653 | 0.678 | 0.604 | 0.611
5 | LOU-NH91 | 0.756 | 0.711 | 0.674 | 0.695 | 0.712 | 0.525 | 0.497 | 0.426 | 0.467 | 0.621 | 1.02 | 0.489 | 0.533 | 0.478 | 0.51 | 0.778 | 0.755 | 0.802 | 0.775 | 0.743
6 | EMC-BAC-2 | 0.712 | 0.695 | 0.726 | 0.743 | 0.733 | 1.08 | 0.944 | 0.811 | 0.965 | 1.08 | 1.03 | 1.03 | 1.19 | 1.12 | 1.15 | 0.94 | 1.09 | 1.25 | 0.998 | 1.07
7 | NCI-H1355 | 1.06 | 0.962 | 1.22 | 1.02 | 1.04 | 1.23 | 1.04 | 1.11 | 1.16 | 1.16 | 1.09 | 1.19 | 1.17 | 1.25 | 1.28 | 0.621 | 0.738 | 0.676 | 0.672 | 0.551
8 | ABC-1 | 1.03 | 0.953 | 1.17 | 0.81 | 0.343 | 0.329 | 0.246 | 0.258 | 0.328 | 0.327 | 0.28 | 0.398 | 0.247 | 0.239 | 0.356 | 0.756 | 0.717 | 0.829 | 0.893 | 1
9 | NCI-H727 | 0.782 | – | 1.01 | 0.771 | 0.443 | 0.934 | – | 1.19 | 0.954 | 0.35 | 1.02 | 0.953 | 0.717 | 0.934 | 1.18 | 0.642 | 0.575 | 0.562 | 0.568 | 0.57
10 | NCI-H1666 | 0.925 | – | 1.01 | 0.882 | 0.462 | 0.776 | – | 0.84 | 0.66 | 0.495 | 0.838 | 0.791 | 0.948 | 0.809 | 0.743 | 0.819 | 0.806 | 0.808 | 0.74 | 0.887
11 | NCI-H2126 | 0.99 | 0.823 | 1 | 0.979 | 0.917 | 1.02 | 0.617 | 1.09 | 1.05 | 0.998 | 1.07 | 1.11 | 1.09 | 1.09 | 1.08 | 0.932 | 1 | 0.948 | 1.16 | 0.998
12 | LCLC-97TM1 | – | – | 0.455 | 0.269 | 0.323 | 0.981 | – | 0.393 | 0.449 | 0.526 | 0.53 | 0.792 | 0.569 | 0.973 | 0.172 | 0.311 | 0.339 | 0.262 | 0.381 | 0.273
13 | HARA | 0.975 | 0.962 | – | 0.942 | 0.662 | 1.1 | 1 | – | 1.09 | 1.08 | 1.04 | 1.15 | 1.15 | 1.14 | 0.533 | 0.189 | 0.416 | 0.344 | 0.21 | 0.169
14 | NCI-H1792 | 0.981 | 0.675 | 0.911 | 0.955 | 0.959 | 0.963 | 0.724 | 0.915 | 0.909 | 1.02 | 0.784 | 1.04 | 1.05 | 0.976 | 1 | 0.414 | 0.631 | 0.641 | 0.601 | 0.617
15 | LC-2-ad | 0.554 | 0.426 | 0.375 | 0.41 | 0.427 | 0.932 | 0.907 | 0.749 | 1.01 | 0.94 | 0.857 | 1.05 | 1.03 | 0.996 | 0.668 | 0.75 | 0.841 | 0.822 | 0.886 | 0.78
16 | LXF-289 | 0.71 | 0.768 | 0.776 | 0.806 | 0.753 | 0.952 | 0.866 | 1 | 0.994 | 1.02 | 0.996 | 1.02 | 0.978 | 1.01 | 0.908 | 1.02 | 1.16 | 1.05 | 1.1 | 1.05
17 | NCI-H2347 | 0.644 | 0.707 | 0.651 | 0.633 | 0.554 | 0.827 | 0.818 | 0.827 | 0.958 | 0.818 | 0.747 | 1.08 | 0.758 | 1.02 | 1.02 | 0.577 | 0.934 | 0.649 | 0.746 | 0.677
18 | RERF-LC-KJ | 0.709 | 0.837 | 0.721 | 0.872 | 0.768 | 0.989 | 0.993 | 1.04 | 1.11 | 0.963 | 1.07 | 1.15 | 1.24 | 1.04 | 0.98 | 0.879 | 0.61 | 0.883 | 0.976 | 0.972
19 | NCI-H596 | 1.11 | 1.04 | 0.932 | 0.949 | 0.992 | 0.999 | 0.945 | 0.99 | 0.976 | 1 | 0.961 | 1.05 | – | 1.07 | 0.935 | 1.11 | 1.21 | 1.15 | 0.986 | 1.13
20 | NCI-H1734 | 0.645 | 0.637 | 0.576 | 0.57 | 0.486 | 0.795 | 0.878 | 0.738 | 0.725 | 0.783 | 0.98 | 1.03 | 0.895 | 0.992 | 0.834 | 0.262 | 0.535 | 0.545 | 0.563 | 0.337
21 | NCI-H1703 | 0.736 | 0.748 | 0.431 | 0.616 | 0.662 | 0.377 | 0.377 | 0.234 | 0.355 | 0.436 | 0.213 | 0.485 | 0.292 | 0.275 | 0.275 | 0.104 | 0.164 | 0.106 | – | 0.183
22 | NCI-H1915 | 0.852 | 0.826 | 0.87 | 0.915 | 0.804 | 0.883 | 0.924 | 0.661 | 0.931 | 1.01 | 0.933 | 1.01 | 0.502 | 0.955 | 0.973 | 0.673 | 0.714 | 0.75 | 0.729 | 0.745
23 | NCI-H838 | 0.85 | 0.845 | – | 0.816 | 0.752 | 0.978 | 0.483 | – | 0.769 | 0.792 | 0.908 | 0.832 | 0.882 | 0.738 | 0.302 | 0.931 | 0.921 | 0.844 | 0.963 | 0.698
24 | HCC-15 | 0.755 | 0.733 | 0.778 | 0.757 | 0.536 | 1.01 | 0.527 | 0.943 | 1.01 | 0.906 | 1.01 | 1.08 | 1.02 | 1.12 | 1.04 | 1.27 | 1.1 | 1.33 | 1.1 | 1.16
25 | NCI-H650 | 0.568 | 0.594 | 0.525 | 0.494 | 0.434 | 0.76 | 0.525 | 0.495 | 0.663 | 0.663 | 0.519 | 0.691 | 0.762 | 0.999 | 0.897 | 0.915 | 0.652 | 0.952 | 1.06 | 1.21
26 | NCI-H1651 | 0.854 | 0.737 | 0.92 | 0.817 | 0.85 | 0.893 | 0.842 | 0.893 | 0.901 | 0.884 | 0.827 | 1.02 | 0.995 | 0.921 | 0.969 | 0.277 | 0.382 | 0.351 | 0.398 | 0.385
27 | NCI-H2405 | 0.847 | 0.794 | – | 0.751 | 0.664 | 0.992 | 0.724 | – | 0.968 | 1.04 | 1.02 | 1 | 0.944 | 0.994 | 1.11 | 0.838 | 0.771 | 0.702 | 0.589 | 0.618
